Structures can show the parent of a compound that is named as a salt.
Key:
dorsal skin of a rabbit = assay: Primary irritation index of the active ingredient (4% by weight in Plastibase); format: in vivo; details: 24 h enclosed application
Description: The phrase “low skin irritation” means skin irritation having a primary irritation index (P.I.I.) of 5 or less. The primary irritation index can be measured by the following method.
An active ingredient is added and mixed to an ointment base, Plastibase (manufactured by Taisho Pharmaceutical Co., Ltd.) so as to be 4% by weight based on the total weight, and dispersed to produce a preparation.
The dorsal skin of a rabbit is shaved with an electric clipper (with an electric shaver if necessary). On the dorsal healthy skin, two points in each of right and left sides of the dorsal midline, that is, four points in total are set to be an administration site. Next, the produced preparation is taken out with a spatula and spread evenly on a piece of lint having a size of 2 cm×2 cm, and the piece of lint is attached to the administration site. The piece of lint is fixed by covering with a non-woven adhesive bandage (manufactured by Nichiban Co., Ltd., MESHPORE, No. 50). Then, the administration sites are altogether wrapped with gauze and enclosed by covering with an adhesive cloth elastic bandage (manufactured by Nichiban Co., Ltd., ELASTOPORE, No. 100). The enclosure is released 24 hours after the start of administration, and the administered samples are removed.
The skin reaction is visually observed with the naked eye 24 hours after the administration (30 minutes after the release of the enclosure and the removal of the administered samples). […]
Specifically, for each administered sample at each time of observation, the individual score of the skin reaction at the administration site of each rabbit (the total of scores of erythema/eschar formation and edema formation) is calculated. Then, the primary irritation index (P.I.I.) is calculated from the individual scores at 24 hours and 72 hours after the administration (the score at 48 hours after the administration is not added). Specifically, the primary irritation index is calculated using Formulae (1) and (2) described below. […]

[1] = Octanol/water partition coefficient; format: physicochemical; details: Log10, octanol / aqueous buffer pH 7
Description: In the present invention, the octanol/water partition coefficient is determined from the concentration of the active ingredient in each phase by adding the active ingredient to octanol and an aqueous buffer solution having a pH of 7 in a flask and then shaking the flask. Specifically, the octanol/water partition coefficient can be determined by calculating using the formula: octanol/water partition coefficient=Log10 (concentration in octanol phase/concentration in aqueous phase).

| Structure (SMILES) | primary irritation index (P.I.I.) of the active ingredient (dorsal skin of a rabbit) | octanol/water partition coefficient [1] | logD ([1]; octanol / aqueous buffer solution) |
| --- | --- | --- | --- |
| CC(C(=O)O)c1ccc(CC2CCCC2=O)cc1 (centres unmarked) [loxoprofen sodium dihydrate] | 0.3 | – | – |
| CC12CC3CC(C)(C1)CC(N)(C3)C2 [memantine hydrochloride] | 2.5 | – | – |
| CCN(C)C(=O)Oc1cccc([C@H](C)N(C)C)c1 [rivastigmine] | 0.5 | – | – |
| CCCc1nc(C)c2c(=O)[nH]c(-c3cc(S(=O)(=O)N4CCN(CC)CC4)ccc3OCC)nn12 [vardenafil hydrochloride hydrate] | – | 0.0 | 0 |

Reference: patent US20220192996A1, “CORE-SHELL STRUCTURE, PREPARATION, MEDICINE FOR EXTERNAL APPLICATION, TAPE AGENT AND COSMETIC PRODUCT” (SEKISUI CHEMICAL CO., LTD., priority 2019, published 2022)
